Reference: patent publication US8741955B2, “D-serine transporter inhibitors as pharmaceutical compositions for the treatment of central nervous system disorders” (Allergan, Inc., priority 2011, dated 2014)

Assays:
[1] = tested on: NMDA receptor-mediated excitatory postsynaptic currents (EPSCNMDA); assay: electrophysiological recording of NMDA receptor-mediated EPSCs in rat hippocampal slices
Procedure: […] thick hippocampal slices were prepared from […] rats using Leica VT1000S-microtome. Slices were perfused with ACSF containing: 121 mM NaCl, 2.5 mM KCl, 2.0 mM Mg2SO4, 2.0 CaCl2, 1 mM NaH2PO4, 26.2 NaHCO3, and 11 mM glucose, which was equilibrated with 5% CO2/95% O2. Experiments were performed in a recording chamber on the stage of an Olympus BX-61wi microscope with infrared DIC optics for visualizing whole-cell patch-clamp recordings. EPSPs were recorded from CA1 pyramidal neurons by stimulating the Schaffer collateral-commissural pathway using a bipolar tungsten electrode. The recording pipettes were filled with regular ICM containing: 120 mM Cs-gluconate, 5 mM NaCl, 10 mM KCl, 0.1 mM CaCl2, 1 mM EGTA, 2 mM MgCl2, 10 mM HEPES, 2 mM Na-ATP, 2 mM Na2-phosphocreatine, and 0.25 mM Na-GTP, pH 7.3 (290 mOsm).
To measure NMDA-mediated EPSCs, extracellular Mg2SO4 was lowered to 0.2 mM and 2 μM NBQX and 100 μM picrotoxin were added in the ACSF. 1 μM 7-CKY (7-chlorokynurenic acid) was added to improve the sensitivity of […] to D-serine.

[2] = tested on: amphetamine-induced hyperlocomotion; details: systemic administration; Smith et al, 2009; cited from earlier work

Row | Structure (SMILES) | percentage increase in the amplitude of EPSCNMDA ([1]; 1000 μM, in presence of 1 μM 7-CKY, representative experiment) [%] | duration of potentiation of EPSCNMDA ([1]; 1000 μM, representative experiment) | effect on NMDA receptor mediated EPSCs in CA1 region of the hippocampus ([1]; rat hippocampal slice) | effect on amphetamine-induced hyperlocomotion (literature) [2]
1 | N[C@H](C(=O)O)c1ccc(O)cc1 [L-4-hydroxyphenylglycine] | 22 | lasted for one hour and then returned to baseline in control buffer | potentiated NMDA receptor mediated excitatory post-synaptic currents | –
2 | N[C@H](CO)C(=O)O [D-serine] | – | – | – | reduce amphetamine-induced hyperlocomotion
